Assay results taken from patent publication US20230183193A1, “4-DIFLUOROMETHYL BENZOYL AMIDES WITH HERBICIDAL ACTION” (BAYER CROPSCIENCE AKTIENGESELLSCHAFT, priority 2017, published 2023).

What was measured:
Assay type in all cases: in vivo
Abutilon theophrasti [1] = assay: Pre-emergence herbicidal action, ABUTH; settings: dosage 320 g/ha, scored visually after 3 weeks vs untreated controls
How it was run: (§1)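 Percent herbicidal activity rated by eye 3 weeks after pre-emergence soil-surface application, compared with untreated pots. Seeds sat under sandy loam; sprays carried 0.2% wetting agent.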

Alopecurus myosuroides [2] = assay: Pre-emergence herbicidal action, ALOMY; settings: dosage 320 g/ha, scored visually after 3 weeks vs untreated controls
How it was run: as §1

Amaranthus retroflexus [3] = assay: Pre-emergence herbicidal action, AMARE; settings: dosage 320 g/ha, scored visually after 3 weeks vs untreated controls
How it was run: as §1

Avena fatua [4] = assay: Pre-emergence herbicidal action, AVEFA; settings: dosage 320 g/ha, scored visually after 3 weeks vs untreated controls
How it was run: as §1

Cyperus serotinus = assay: Pre-emergence herbicidal action, CYPES; settings: dosage 320 g/ha, scored visually after 3 weeks vs untreated controls
How it was run: as §1

Matricaria inodora = assay: Pre-emergence herbicidal action, MATIN; settings: dosage 320 g/ha, scored visually after 3 weeks vs untreated controls
How it was run: as §1

Setaria viridis [5] = assay: Pre-emergence herbicidal action, SETVI; settings: dosage 320 g/ha, scored visually after 3 weeks vs untreated controls
How it was run: as §1

Stellaria media [6] = assay: Pre-emergence herbicidal action, STEME; settings: dosage 320 g/ha, scored visually after 3 weeks vs untreated controls
How it was run: as §1

Viola tricolor [7] = assay: Pre-emergence herbicidal action, VIOTR; settings: dosage 320 g/ha, scored visually after 3 weeks vs untreated controls
How it was run: as §1

Abutilon theophrasti [8] = assay: Post-emergence herbicidal action, ABUTH; settings: 80 g/ha, Table D
How it was run: (§2)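 Post-emergence spray; one-leaf stage (2–3 wk after sowing), sandy loam, greenhouse. WP/EC in water, 600 to […], +0.2% wetting agent. Visual % damage vs untreated at ~3 wk; 100% = plants dead.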

Alopecurus myosuroides [9] = assay: Post-emergence herbicidal action, ALOMY; settings: 80 g/ha, Table C
How it was run: as §2

Amaranthus retroflexus [10] = assay: Post-emergence herbicidal action, AMARE; settings: 80 g/ha, Table D
How it was run: as §2

Avena fatua [11] = assay: Post-emergence herbicidal action, AVEFA; settings: 80 g/ha, Table C
How it was run: as §2

Pharbitis purpureum = assay: Post-emergence herbicidal action, PHBPU; settings: 80 g/ha, Table D
How it was run: as §2

Setaria viridis [12] = assay: Post-emergence herbicidal action, SETVI; settings: 80 g/ha, Table C
How it was run: as §2

Stellaria media [13] = assay: Post-emergence herbicidal action, STEME; settings: 80 g/ha, Table D
How it was run: as §2

Viola tricolor [14] = assay: Post-emergence herbicidal action, VIOTR; settings: 80 g/ha, Table D
How it was run: as §2

ECHCG = assay: Post-emergence herbicidal action, ECHCG; settings: 80 g/ha, Table C
How it was run: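 Weed and crop plants grown in sandy loam in the greenhouse, treated at the one-leaf stage 2–3 weeks after sowing. Damage scored visually after about 3 weeks vs untreated controls (0% = control, 100% = dead).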

Compound	herbicidal activity ABUTH (Abutilon theophrasti [1]) [%]	herbicidal activity ALOMY (Alopecurus myosuroides [2]) [%]	herbicidal activity AMARE (Amaranthus retroflexus [3]) [%]	herbicidal activity AVEFA (Avena fatua [4]) [%]	herbicidal activity CYPES (Cyperus serotinus) [%]	herbicidal activity MATIN (Matricaria inodora) [%]	herbicidal activity SETVI (Setaria viridis [5]) [%]	Herbicidal activity STEME (Stellaria media [6]) [%]	herbicidal activity VIOTR (Viola tricolor [7]) [%]	herbicidal activity ABUTH (Abutilon theophrasti [8]) [%]	herbicidal activity ALOMY (Alopecurus myosuroides [9]) [%]	herbicidal activity AMARE (Amaranthus retroflexus [10]) [%]	herbicidal activity AVEFA (Avena fatua [11]) [%]	Herbicidal activity PHBPU (Pharbitis purpureum) [%]	herbicidal activity SETVI (Setaria viridis [12]) [%]	Herbicidal activity STEME (Stellaria media [13]) [%]	herbicidal activity VIOTR (Viola tricolor [14]) [%]	Herbicidal activity ECHCG (ECHCG) [%]
CCc1c(C(=O)Nc2nnc(C)o2)ccc(C(F)F)c1S(=O)(=O)CC [Example 7-16]	100	100	100	100	100	100	100	100	100	100	90	100	90	90	100	100	100	90
CC[S+]([O-])c1c(C(F)F)ccc(C(=O)Nc2nnnn2C)c1C1CC1 (stereo not drawn) [Example 1-29]	100	100	100	100	100	100	100	100	100	100	100	100	90	100	100	100	100	100
CCSc1c(C(F)F)ccc(C(=O)Nc2nnnn2C)c1Br [Example 1-64]	100	100	100	100	100	100	100	100	100	100	90	100	100	100	90	100	100	90
CCc1c(C(=O)Nc2nnnn2C)ccc(C(F)F)c1S(=O)(=O)CC [Example 1-18]	100	100	100	100	100	100	100	100	100	100	90	100	100	90	100	100	100	90
CCn1nnnc1NC(=O)c1ccc(C(F)F)c(S(C)(=O)=O)c1C1CC1 [Example 2-27]	100	100	100	100	100	100	100	100	100	100	90	100	100	90	100	100	100	100
